Holding throughout (format): in vivo, human
Test [1] in a line: Comparative sensory study: sweetened fiber vs mixture of sweetener and fiber vs sweetener alone (Example 8). The note with it: 9-point hedonic scale, 10% in water, N=12, FIG. 6. The protocol:
The sensory characteristics of the sweetened fiber of the present disclosure were evaluated against a simple mixture of dietary fiber and stevia extract or stevia extract alone. The preference towards the sweetened fiber of the present disclosure, a mixture of dietary fiber and stevia extract, or stevia extract alone was determined. Any sensory difference between the sweetened fiber of the present disclosure versus a mixture of dietary fiber and stevia extract was evaluated.
Study design: randomized crossover. Twelve adults were recruited for the study. Samples were evaluated for pleasantness using 9-point hedonic scales (Peryam, D. R., Girardot, N. F. (1952). Advanced taste test method. Food Engineering, 24, 58-61, 194.). Unstructured scales such as visual analogue scales (VAS) are also used for the sensory evaluation of food (Baten, W. D. (1946). Organoleptic tests pertaining to apples and pears. Journal of Food Science, 11, 84-94.). The intensity of off-taste, bitterness and sweet aftertaste sweetness were determined using a 10-point scale. […]
Data analysis: The normality of the data was evaluated using D'Agostino & Pearson omnibus normality test. If the data didn't follow a normal distribution, the statistical significance of preference and intensity was assessed with the Kruskal-Wallis test using an alpha criterion of 5%. […]

Test [2] can be described thus: Sensory evaluation: sucrose vs sweetened fiber vs stevia extract (Example 9). As to conditions: score 1 to 100; 10% sucrose, 10% sweet fiber, 0.05% RebM; FIG. 7. The protocol:
A sensory evaluation session was conducted at BioFoodTech, to determine the taste difference between sucrose, the sweetened fiber of the present disclosure and stevia extract solutions. A group of twelve panelists formed a panel for the sensory evaluation. The ranking test measured the overall difference and intensity score for sensory attributes, including the strength of flavor, bitterness, liquorice taste and off-flavor.
A group of experienced panelists from BioFoodTech formed a panel for a sensory evaluation session to determine the quality difference between the sweet product samples.
Three 250 mL samples were prepared (10% solutions of sucrose, 10% the sweetened fiber of the present disclosure and 0.05% solution of Rebaudioside M (RebM). A sensory code consisting of a random 3-digit number was assigned to each sample.
Twelve experienced panelists were divided into two groups. A complete block design was chosen for the sensory evaluation of the […], including a ranking test used to determine the overall difference and intensity scoring for four […] attributes (strength of flavor, bitterness, liquorice taste and off-flavor). The four coded samples were presented to each panelist in a balanced order throughout the evaluation.
In the individual attributes evaluation, the panelists were asked to quantify the difference of specific attributes among the four samples by scoring from 1 to 100 (1 for none and 100 for the strongest, see FIG. 7) to reflect the intensity of the attribute best.

The nature of test [3]: Sensory testing by a panel of twelve tasters (Example 4). As to conditions: 10% solution. As to the method: The taste of the sweetened fiber of the present disclosure prepared according to Example 1 was assessed by an external third party using a panel of tasters. A group of twelve panelists formed a panel for the sensory evaluation. The ranking test was used to measure the overall difference and intensity score for four sensory attributes, flavor, aftertaste, and mouthfeel. Each panelist evaluated all four samples. […] Sample Preparation: Two 250 mL samples were prepared (10% solutions of sucrose (control) and corn sweetened fiber of Example 1-1. A sensory code consisting of a random 3-digit number was assigned to each sample. Taste Session: The sensory evaluation was carried out at BioFoodTech's Sensory Lab. Twelve experienced panelists were divided into two groups. A complete block design was chosen for the sensory evaluation of the four samples, including a ranking test used to determine the overall difference. Statistical Analysis for the Data: For the individual attributes, Analysis of Variance (ANOVA) and the Tukey-Kramer HSD test were used to analyze the difference among sample means of individual attributes at a 5% significance level. For the Ranking test, a Friedman-type statistic was used to determine if there was a statistically significant difference among samples at a 5% significance level. All statistical analyses were done using the JMP®8 (SAS Institute Inc., Cary, NC).

Test [4] can be described thus: Double-blinded randomized crossover sensory study: sweetened fiber vs sucrose (Example 10). The note with it: 10% solution. As to the method:
The sensory characteristics of an example of the sweetened fiber of the present disclosure were evaluated and compared to those of sucrose. Any preference towards the exemplary sweetened fiber of the present disclosure or sucrose solutions was determined. The sensory acceptance of the exemplary sweetened fiber of the present disclosure and sucrose was evaluated. Study design: double-blinded, randomized crossover. Sixty adults (18-65 years old, 30 males and 30 females) were recruited for the study. […] Samples were evaluated for pleasantness, taste, flavour, sweetness, and mouthfeel using 9-point hedonic scales ([…]. (1952). Advanced taste test method. Food Engineering, 24, 58-61, 194). […] The intensity of sweetness, bitterness, and metallic taste was determined using a 100 mm Visual Analogue Scale (VAS). […] Data analysis: The preference towards either blinded samples of 10% solution of Sucrose or 10% solution of the exemplary sweetened fiber of the present disclosure was determined with a forced paired preference test ([…]., Heymann, H. (2010). Sensory evaluation of food. Springer, New York, NY.). […] If there was an effect of sex (P≤0.05), the data was analyzed separately for males and females. If there was no effect of sex (P>0.05), the pooled data for males and females was analyzed with the Friedman test followed by Dunn's multiple comparisons. […]

2 compounds from patent publication US20260101916A1, “SWEETENED FIBER AND METHODS THEREOF” (ZeroIN Foods Inc., priority 2022, published 2026) can be followed below.

Each structure is given as a SMILES string.

`C=C1C[C@@]23CC[C@H]4[C@@](C)(CCC[C@@]4(C)C(=O)O[C@@H]4O[C@H](CO)[C@@H](O)[C@H](O[C@@H]5O[C@H](CO)[C@@H](O)[C@H](O)[C@H]5O)[C@H]4O[C@@H]4O[C@H](CO)[C@@H](O)[C@H](O)[C@H]4O)[C@@H]2CC[C@]1(O[C@@H]1O[C@H](CO)[C@@H](O)[C@H](O[C@@H]2O[C@H](CO)[C@@H](O)[C@H](O)[C@H]2O)[C@H]1O[C@@H]1O[C@H](CO)[C@@H](O)[C@H](O)[C@H]1O)C3` [Rebaudioside M]: the Pleasantness result in test [1] is “no differences”. Also, in test [2], the “Mean score, bitterness” value is “highest”; the “Mean score, liquorice taste” value is “highest”; the “Mean score, off-flavor” value is listed as “highest”; the “Mean score, strength of flavor” value is reported as “highest”.
`OC[C@H]1O[C@@](CO)(O[C@H]2O[C@H](CO)[C@@H](O)[C@H](O)[C@H]2O)[C@@H](O)[C@@H]1O` [sucrose]: in test [3], the “Rank mean (ranking taste preference)” value is on record as 2.58 and the “RankSum (ranking taste preference)” value is given as 31. Moreover, in test [3] (n = 12), the Mouthfeel is reported as 73%, the Off-flavour turned out to be 0%, the Sweetness was found to be 100% and the Taste preference was found to be 98%. Besides, the “Mean acceptance values on hedonic scales” value in test [4] is “neutral or above the neutral”.
